Experimental data published in the supplement of paper PMC10307832.

Experiments:
Assay in all cases: relative viability (nuclei count vs DMSO), 5 days (fraction); higher = more cells survive
NCI-H1993 = test system: NCI-H1993
Summary of the method: (§1)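 A single step with final 0.05% Triton X-100, 1% formaldehyde and 1 ug/ml Hoechst fixed the cells and stained nuclei 5 days after treatment. Lung cancer cell lines in 1536-well plates had been treated by pin tool the day after seeding with one drug alone or a fixed anchor-drug dose plus five library-drug doses (not always all listed) in √10 steps, and nuclei were counted on 4× images. Relative viability is the ratio of nuclei in treated wells to nuclei in vehicle wells, taken as the median of duplicate plates.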

IA-LM = test system: IA-LM
Summary of the method: as §1

NCI-H1648 = test system: NCI-H1648
Summary of the method: as §1

ABC-1 = test system: ABC-1
Summary of the method: as §1

RERF-LC-KJ = test system: RERF-LC-KJ
Summary of the method: as §1

EKVX = test system: EKVX
Summary of the method: as §1

NCI-H2085 = test system: NCI-H2085
Summary of the method: as §1

HCC-44 = test system: HCC-44
Summary of the method: as §1

NCI-H2126 = test system: NCI-H2126
Summary of the method: as §1

NCI-H1703 = test system: NCI-H1703
Summary of the method: as §1

A549 = test system: A549
Summary of the method: as §1

`Nc1ccn([C@@H]2O[C@H](CO)[C@@H](O)[C@@H]2O)c(=O)n1` [Cytarabine] + O=C(CCCCCCC(=O)Nc1ccccc1)NO [Vorinostat] (partner 1 µM) gave a relative viability (NCI-H1993; first compound 0.005 µM) of 0.865, a relative viability (NCI-H1993; first compound 0.01581 µM) of 0.556 and a relative viability (NCI-H1993; first compound 0.05 µM) of 0.751. It also gave a relative viability (NCI-H1993; first compound 0.1581 µM) of 0.503, a relative viability (NCI-H1993; first compound 0.5 µM) of 0.602 and a relative viability (IA-LM; first compound 0.005 µM) of 0.868. For the same compound, the relative viability (IA-LM; first compound 0.01581 µM) was 1.03, the relative viability (IA-LM; first compound 0.05 µM) was 1.07 and the relative viability (IA-LM; first compound 0.1581 µM) was 0.518. For the same compound, the relative viability (IA-LM; first compound 0.5 µM) was 0.578, the relative viability (NCI-H1648; first compound 0.005 µM) was 0.4 and the relative viability (NCI-H1648; first compound 0.01581 µM) was 0.354. It also gave a relative viability (NCI-H1648; first compound 0.05 µM) of 0.556, a relative viability (NCI-H1648; first compound 0.1581 µM) of 0.408 and a relative viability (NCI-H1648; first compound 0.5 µM) of 0.357. For the same compound, the relative viability (ABC-1; first compound 0.005 µM) was 0.934, the relative viability (ABC-1; first compound 0.01581 µM) was 0.995 and the relative viability (ABC-1; first compound 0.05 µM) was 0.972. For the same compound, the relative viability (ABC-1; first compound 0.1581 µM) was 0.933, the relative viability (ABC-1; first compound 0.5 µM) was 0.744 and the relative viability (RERF-LC-KJ; first compound 0.005 µM) was 0.569. It also gave a relative viability (RERF-LC-KJ; first compound 0.01581 µM) of 0.66, a relative viability (RERF-LC-KJ; first compound 0.05 µM) of 0.513 and a relative viability (RERF-LC-KJ; first compound 0.1581 µM) of 0.474. For the same compound, the relative viability (RERF-LC-KJ; first compound 0.5 µM) was 0.393, the relative viability (EKVX; first compound 0.005 µM) was 0.706 and the relative viability (EKVX; first compound 0.01581 µM) was 0.7. The relative viability (EKVX; first compound 0.05 µM) was 0.636, the relative viability (EKVX; first compound 0.1581 µM) was 0.494 and the relative viability (EKVX; first compound 0.5 µM) was 0.414. The relative viability (NCI-H2085; first compound 0.005 µM) was 0.698, the relative viability (NCI-H2085; first compound 0.01581 µM) was 0.79 and the relative viability (NCI-H2085; first compound 0.05 µM) was 0.744. It also gave a relative viability (NCI-H2085; first compound 0.1581 µM) of 0.618, a relative viability (NCI-H2085; first compound 0.5 µM) of 0.635 and a relative viability (HCC-44; first compound 0.005 µM) of 1.2. The relative viability (HCC-44; first compound 0.01581 µM) was 1.09, the relative viability (HCC-44; first compound 0.05 µM) was 1.08 and the relative viability (HCC-44; first compound 0.1581 µM) was 0.973. For the same compound, the relative viability (HCC-44; first compound 0.5 µM) was 0.948, the relative viability (NCI-H2126; first compound 0.005 µM) was 0.649 and the relative viability (NCI-H2126; first compound 0.01581 µM) was 0.681. The relative viability (NCI-H2126; first compound 0.05 µM) was 0.448, the relative viability (NCI-H2126; first compound 0.1581 µM) was 0.593 and the relative viability (NCI-H2126; first compound 0.5 µM) was 0.44.

`CC(=O)O[C@@]12CO[C@@H]1C[C@H](O)[C@@]1(C)C(=O)[C@H](O)C3=C(C)[C@@H](OC(=O)[C@H](O)[C@@H](NC(=O)OC(C)(C)C)c4ccccc4)C[C@@](O)([C@@H](OC(=O)c4ccccc4)[C@H]21)C3(C)C` [Docetaxel] + NC(=O)Nc1cc(-c2cccc(F)c2)sc1C(=O)N[C@H]1CCCNC1 [AZD7762] (partner 0.2 µM) gave a relative viability (NCI-H1993; first compound 0.0002 µM) of 0.873, a relative viability (NCI-H1993; first compound 0.000632 µM) of 0.739 and a relative viability (NCI-H1993; first compound 0.002 µM) of 0.603. The relative viability (NCI-H1993; first compound 0.006325 µM) was 0.477, the relative viability (NCI-H1993; first compound 0.02 µM) was 0.303 and the relative viability (NCI-H1648; first compound 0.0002 µM) was 0.589. The relative viability (NCI-H1648; first compound 0.000632 µM) was 0.701, the relative viability (NCI-H1648; first compound 0.002 µM) was 0.431 and the relative viability (NCI-H1648; first compound 0.006325 µM) was 0.248. The relative viability (NCI-H1648; first compound 0.02 µM) was 0.217, the relative viability (ABC-1; first compound 0.0002 µM) was 0.826 and the relative viability (ABC-1; first compound 0.000632 µM) was 0.795. The relative viability (ABC-1; first compound 0.002 µM) was 0.619, the relative viability (ABC-1; first compound 0.006325 µM) was 0.297 and the relative viability (ABC-1; first compound 0.02 µM) was 0.222. The relative viability (RERF-LC-KJ; first compound 0.0002 µM) was 0.5, the relative viability (RERF-LC-KJ; first compound 0.000632 µM) was 1.01 and the relative viability (RERF-LC-KJ; first compound 0.002 µM) was 0.363. It also gave a relative viability (RERF-LC-KJ; first compound 0.006325 µM) of 0.196, a relative viability (RERF-LC-KJ; first compound 0.02 µM) of 0.128 and a relative viability (EKVX; first compound 0.0002 µM) of 0.736. It also gave a relative viability (EKVX; first compound 0.000632 µM) of 0.638, a relative viability (EKVX; first compound 0.002 µM) of 0.407 and a relative viability (EKVX; first compound 0.006325 µM) of 0.249. The relative viability (EKVX; first compound 0.02 µM) was 0.132, the relative viability (NCI-H2085; first compound 0.0002 µM) was 0.963 and the relative viability (NCI-H2085; first compound 0.000632 µM) was 0.954. It also gave a relative viability (NCI-H2085; first compound 0.002 µM) of 0.849, a relative viability (NCI-H2085; first compound 0.006325 µM) of 0.338 and a relative viability (NCI-H2085; first compound 0.02 µM) of 0.309. The relative viability (NCI-H1703; first compound 0.000632 µM) was 0.121, the relative viability (NCI-H1703; first compound 0.002 µM) was 0.107 and the relative viability (NCI-H1703; first compound 0.006325 µM) was 0.114. For the same compound, the relative viability (NCI-H1703; first compound 0.02 µM) was 0.0729, the relative viability (HCC-44; first compound 0.0002 µM) was 1.06 and the relative viability (HCC-44; first compound 0.000632 µM) was 1.07. For the same compound, the relative viability (HCC-44; first compound 0.002 µM) was 1.07, the relative viability (HCC-44; first compound 0.006325 µM) was 0.525 and the relative viability (HCC-44; first compound 0.02 µM) was 0.497. It also gave a relative viability (NCI-H2126; first compound 0.0002 µM) of 1.07, a relative viability (NCI-H2126; first compound 0.000632 µM) of 1 and a relative viability (NCI-H2126; first compound 0.002 µM) of 0.571. The relative viability (NCI-H2126; first compound 0.006325 µM) was 0.395.

In the case of `CC(=O)O[C@@]12CO[C@@H]1C[C@H](O)[C@@]1(C)C(=O)[C@H](O)C3=C(C)[C@@H](OC(=O)[C@H](O)[C@@H](NC(=O)OC(C)(C)C)c4ccccc4)C[C@@](O)([C@@H](OC(=O)c4ccccc4)[C@H]21)C3(C)C` [Docetaxel] + Nc1ncn([C@H]2C[C@H](O)[C@@H](CO)O2)c(=O)n1 [Decitabine] (partner 2 µM), the relative viability (NCI-H1993; first compound 0.0002 µM) is reported as 0.608, the relative viability (NCI-H1993; first compound 0.000632 µM) is reported as 0.683 and the relative viability (NCI-H1993; first compound 0.002 µM) is reported as 0.646. For the same compound, the relative viability (NCI-H1993; first compound 0.006325 µM) was 0.585, the relative viability (NCI-H1993; first compound 0.02 µM) was 0.354 and the relative viability (A549; first compound 0.0002 µM) was 0.297. The relative viability (A549; first compound 0.000632 µM) was 0.18, the relative viability (A549; first compound 0.002 µM) was 0.0587 and the relative viability (A549; first compound 0.006325 µM) was 0.0522. For the same compound, the relative viability (A549; first compound 0.02 µM) was 0.0318, the relative viability (NCI-H1648; first compound 0.0002 µM) was 0.452 and the relative viability (NCI-H1648; first compound 0.000632 µM) was 0.487. The relative viability (NCI-H1648; first compound 0.002 µM) was 0.339, the relative viability (NCI-H1648; first compound 0.006325 µM) was 0.216 and the relative viability (NCI-H1648; first compound 0.02 µM) was 0.231. The relative viability (ABC-1; first compound 0.0002 µM) was 1.04, the relative viability (ABC-1; first compound 0.000632 µM) was 0.923 and the relative viability (ABC-1; first compound 0.002 µM) was 1.01. For the same compound, the relative viability (ABC-1; first compound 0.006325 µM) was 0.618, the relative viability (ABC-1; first compound 0.02 µM) was 0.416 and the relative viability (RERF-LC-KJ; first compound 0.0002 µM) was 0.716. For the same compound, the relative viability (RERF-LC-KJ; first compound 0.000632 µM) was 0.542, the relative viability (RERF-LC-KJ; first compound 0.002 µM) was 0.232 and the relative viability (RERF-LC-KJ; first compound 0.02 µM) was 0.146. The relative viability (EKVX; first compound 0.0002 µM) was 0.279, the relative viability (EKVX; first compound 0.000632 µM) was 0.327 and the relative viability (EKVX; first compound 0.002 µM) was 0.26. The relative viability (EKVX; first compound 0.006325 µM) was 0.198, the relative viability (EKVX; first compound 0.02 µM) was 0.134 and the relative viability (NCI-H2085; first compound 0.0002 µM) was 0.539. For the same compound, the relative viability (NCI-H2085; first compound 0.000632 µM) was 0.612, the relative viability (NCI-H2085; first compound 0.002 µM) was 0.552 and the relative viability (NCI-H2085; first compound 0.006325 µM) was 0.459. For the same compound, the relative viability (NCI-H2085; first compound 0.02 µM) was 0.401, the relative viability (HCC-44; first compound 0.0002 µM) was 0.96 and the relative viability (HCC-44; first compound 0.000632 µM) was 0.97. The relative viability (HCC-44; first compound 0.002 µM) was 0.853, the relative viability (HCC-44; first compound 0.006325 µM) was 0.472 and the relative viability (HCC-44; first compound 0.02 µM) was 0.566. The relative viability (NCI-H2126; first compound 0.0002 µM) was 0.622, the relative viability (NCI-H2126; first compound 0.000632 µM) was 0.548 and the relative viability (NCI-H2126; first compound 0.002 µM) was 0.463. It also gave a relative viability (NCI-H2126; first compound 0.006325 µM) of 0.387.
